PubChem BioAssay AID1845213 (Molecular Pharmacology Branch, DTP, NCI, 2023)
Values joined by “and” are separate entries in the source; they are usually repeats but may differ in a detail not shown here. Identical values can stand only once. Active and inactive are the calls of the source. The calls were made as follows: active = viability on the fitted dose curve at most 10% of control; inactive = the rest.

Test system: NCI-H841 complex tumor spheroid viability
Assay: Anticancer human tumor NCI-H841 cell line growth inhibition;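 as to IC50: spheroids exposed to compounds for 7 days before readout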;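 as to viability, T/C: spheroids exposed to compounds for 7 days before readout; 100% = DMSO vehicle control wells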
Conditions: for IC50: curve of first compound; for viability, T/C: stronger effect = lower value
Summary of the method: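 Single agents and combinations were tested on spheroids built from tumor cells plus HUVEC and hMSC, at half-log dilutions starting at or near clinical Cmax, else 10 microM; final DMSO 0.25% (v/v).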

[1] = second compound 0.003 µM, first compound 0.00949 µM
[2] = second compound 0.003 µM, first compound 0.03 µM
[3] = second compound 0.003 µM, first compound 0.0949 µM
[4] = second compound 0.003 µM, first compound 0.3 µM
[5] = second compound 0.003 µM, first compound 0.949 µM
[6] = second compound 0.003 µM, first compound 3 µM
[7] = second compound 0.00949 µM, first compound 0.0949 µM
[8] = second compound 0.00949 µM, first compound 0.3 µM
[9] = second compound 0.00949 µM, first compound 0.949 µM
[10] = second compound 0.00949 µM, first compound 3 µM
[11] = second compound 0.03 µM, first compound 0.0949 µM
[12] = second compound 0.03 µM, first compound 0.3 µM
[13] = second compound 0.03 µM, first compound 0.949 µM
[14] = second compound 0.03 µM, first compound 3 µM
[15] = second compound 0.0949 µM, first compound 0.0949 µM
[16] = second compound 0.0949 µM, first compound 0.3 µM
[17] = second compound 0.0949 µM, first compound 0.949 µM
[18] = second compound 0.0949 µM, first compound 3 µM
[19] = second compound 0.3 µM, first compound 0.0949 µM
[20] = second compound 0.3 µM, first compound 0.3 µM
[21] = second compound 0.3 µM, first compound 0.949 µM
[22] = second compound 0.3 µM, first compound 3 µM

## Cn1ncnc1[C@H]1c2n[nH]c(=O)c3cc(F)cc(c23)N[C@@H]1c1ccc(F)cc1 + CC[C@@]1(O)C(=O)OCc2c1cc1n(c2=O)Cc2cc3c(CN(C)C)c(O)ccc3nc2-1
Second compound 0.003 µM
  IC50: < 9.49 nM
Second compound 0.00949 µM
  IC50: < 9.49 nM
Second compound 0.03 µM
  IC50: < 9.49 nM
Second compound 0.0949 µM
  IC50: < 9.49 nM
Second compound 0.3 µM
  IC50: < 9.49 nM
[1]
  viability, T/C: 47.7%
[2]
  viability, T/C: 40.1%
[3]
  viability, T/C: 29.9%
[4]
  viability, T/C: 8.52%
[5]
  viability, T/C: 1.44%
[6]
  viability, T/C: 1.96%
Second compound 0.00949 µM, first compound 0.00949 µM
  viability, T/C: 5.87%
Second compound 0.00949 µM, first compound 0.03 µM
  viability, T/C: 2.75%
[7]
  viability, T/C: 2.55%
[8]
  viability, T/C: 1.48%
[9]
  viability, T/C: 1.52%
[10]
  viability, T/C: 2.21%
Second compound 0.03 µM, first compound 0.00949 µM
  viability, T/C: 1.67%
Second compound 0.03 µM, first compound 0.03 µM
  viability, T/C: 1.74%
[11]
  viability, T/C: 1.39%
[12]
  viability, T/C: 1.4%
[13]
  viability, T/C: 1.41%
[14]
  viability, T/C: 1.81%
Second compound 0.0949 µM, first compound 0.00949 µM
  viability, T/C: 1.86%
Second compound 0.0949 µM, first compound 0.03 µM
  viability, T/C: 1.68%
[15]
  viability, T/C: 1.61%
[16]
  viability, T/C: 1.69%
[17]
  viability, T/C: 1.52%
[18]
  viability, T/C: 1.31%
Second compound 0.3 µM, first compound 0.00949 µM
  viability, T/C: 0.97%
Second compound 0.3 µM, first compound 0.03 µM
  viability, T/C: 0.99%
[19]
  viability, T/C: 0.94%
[20]
  viability, T/C: 0.9%
[21]
  viability, T/C: 0.63%
[22]
  viability, T/C: 0.52%

## O=C(c1cc(Cc2n[nH]c(=O)c3ccccc23)ccc1F)N1CCN(C(=O)C2CC2)CC1 + CC[C@@]1(O)C(=O)OCc2c1cc1n(c2=O)Cc2cc3c(CN(C)C)c(O)ccc3nc2-1
Second compound 0.003 µM
  IC50: 1480 nM
Second compound 0.00949 µM
  IC50: < 94.9 nM
Second compound 0.03 µM
  IC50: < 94.9 nM
Second compound 0.0949 µM
  IC50: < 94.9 nM
Second compound 0.3 µM
  IC50: < 94.9 nM
[3]
  viability, T/C: 79.5%
[4]
  viability, T/C: 75.1%
[5]
  viability, T/C: 60.5%
[6]
  viability, T/C: 33.6%
Second compound 0.003 µM, first compound 9.49 µM
  viability, T/C: 6.04%
Second compound 0.003 µM, first compound 30 µM
  viability, T/C: 2.34%
[7]
  viability, T/C: 19.2%
[8]
  viability, T/C: 17.4%
[9]
  viability, T/C: 12.7%
[10]
  viability, T/C: 3.98%
Second compound 0.00949 µM, first compound 9.49 µM
  viability, T/C: 7.48%
Second compound 0.00949 µM, first compound 30 µM
  viability, T/C: 2.29%
[11]
  viability, T/C: 1.3%
[12]
  viability, T/C: 1.56%
[13]
  viability, T/C: 1.06%
[14]
  viability, T/C: 1.3%
Second compound 0.03 µM, first compound 9.49 µM
  viability, T/C: 1.43%
Second compound 0.03 µM, first compound 30 µM
  viability, T/C: 1.97%
[15]
  viability, T/C: 7.65%
[16]
  viability, T/C: 1.58%
[17]
  viability, T/C: 1.52%
[18]
  viability, T/C: 1.38%
Second compound 0.0949 µM, first compound 9.49 µM
  viability, T/C: 1.27%
Second compound 0.0949 µM, first compound 30 µM
  viability, T/C: 1.95%
[19]
  viability, T/C: 0.94%
[20]
  viability, T/C: 1.16%
[21]
  viability, T/C: 0.93%
[22]
  viability, T/C: 0.82%
Second compound 0.3 µM, first compound 9.49 µM
  viability, T/C: 0.61%
Second compound 0.3 µM, first compound 30 µM
  viability, T/C: 0.6%

## CC(C)n1c(=O)n(C)c2cnc3cc(F)c(-c4ccc(OCCCN5CCCCC5)nc4)cc3c21 + COc1cc2c(cc1O)CCNC21CSC2c3c(OC(C)=O)c(C)c4c(c3C(COC1=O)N1C(O)C3Cc5cc(C)c(OC)c(O)c5C(C21)N3C)OCO4
Second compound 30 pM
  IC50: > 10000 nM
Second compound 94.9 pM
  IC50: < 31.6 nM
Second compound 0.0003 µM
  IC50: < 31.6 nM
Second compound 0.000949 µM
  IC50: < 31.6 nM
Second compound 0.003 µM
  IC50: < 31.6 nM
Second compound 30 pM, first compound 0.0316 µM
  viability, T/C: 83.8%
Second compound 30 pM, first compound 0.1 µM
  viability, T/C: 79.7%
Second compound 30 pM, first compound 0.316 µM
  viability, T/C: 78.9%
Second compound 30 pM, first compound 1 µM
  viability, T/C: 79.1%
Second compound 30 pM, first compound 3.16 µM
  viability, T/C: 79.1%
Second compound 30 pM, first compound 10 µM
  viability, T/C: 69.5%
Second compound 94.9 pM, first compound 0.0316 µM
  viability, T/C: 40.4%
Second compound 94.9 pM, first compound 0.1 µM
  viability, T/C: 34.5%
Second compound 94.9 pM, first compound 0.316 µM
  viability, T/C: 32%
Second compound 94.9 pM, first compound 1 µM
  viability, T/C: 25.9%
Second compound 94.9 pM, first compound 3.16 µM
  viability, T/C: 26.2%
Second compound 94.9 pM, first compound 10 µM
  viability, T/C: 18%
Second compound 0.0003 µM, first compound 0.0316 µM
  viability, T/C: 3.09%
Second compound 0.0003 µM, first compound 0.1 µM
  viability, T/C: 3.02%
Second compound 0.0003 µM, first compound 0.316 µM
  viability, T/C: 2.66%
Second compound 0.0003 µM, first compound 1 µM
  viability, T/C: 2.5%
Second compound 0.0003 µM, first compound 3.16 µM
  viability, T/C: 2.79%
Second compound 0.0003 µM, first compound 10 µM
  viability, T/C: 2%
Second compound 0.000949 µM, first compound 0.0316 µM
  viability, T/C: 2.82%
Second compound 0.000949 µM, first compound 0.1 µM
  viability, T/C: 3.14%
Second compound 0.000949 µM, first compound 0.316 µM
  viability, T/C: 3.38%
Second compound 0.000949 µM, first compound 1 µM
  viability, T/C: 2.32%
Second compound 0.000949 µM, first compound 3.16 µM
  viability, T/C: 2.06%
Second compound 0.000949 µM, first compound 10 µM
  viability, T/C: 1.47%
Second compound 0.003 µM, first compound 0.0316 µM
  viability, T/C: 0.11%
Second compound 0.003 µM, first compound 0.1 µM
  viability, T/C: 0.12%
Second compound 0.003 µM, first compound 0.316 µM
  viability, T/C: 0.11%
Second compound 0.003 µM, first compound 1 µM
  viability, T/C: 0.1%
Second compound 0.003 µM, first compound 3.16 µM
  viability, T/C: 0.1%
Second compound 0.003 µM, first compound 10 µM
  viability, T/C: 0.15%

## Cc1sc2c(c1C)C(c1ccc(Cl)cc1)=NC(CC(=O)Nc1ccc(O)cc1)c1nnc(C)n1-2 (stereo not drawn) + COc1cc2c(cc1O)CCNC21CSC2c3c(OC(C)=O)c(C)c4c(c3C(COC1=O)N1C(O)C3Cc5cc(C)c(OC)c(O)c5C(C21)N3C)OCO4
Second compound 30 pM
  IC50: 515 nM
Second compound 94.9 pM
  IC50: 291 nM
Second compound 0.0003 µM
  IC50: < 9.49 nM
Second compound 0.000949 µM
  IC50: < 9.49 nM
Second compound 0.003 µM
  IC50: < 9.49 nM
Second compound 30 pM, first compound 0.00949 µM
  viability, T/C: 101%
Second compound 30 pM, first compound 0.03 µM
  viability, T/C: 99.2%
Second compound 30 pM, first compound 0.0949 µM
  viability, T/C: 93.3%
Second compound 30 pM, first compound 0.3 µM
  viability, T/C: 69.2%
Second compound 30 pM, first compound 0.949 µM
  viability, T/C: 28.3%
Second compound 30 pM, first compound 3 µM
  viability, T/C: 5.97%
Second compound 94.9 pM, first compound 0.00949 µM
  viability, T/C: 99.5%
Second compound 94.9 pM, first compound 0.03 µM
  viability, T/C: 91.6%
Second compound 94.9 pM, first compound 0.0949 µM
  viability, T/C: 74.9%
Second compound 94.9 pM, first compound 0.3 µM
  viability, T/C: 53.9%
Second compound 94.9 pM, first compound 0.949 µM
  viability, T/C: 14.4%
Second compound 94.9 pM, first compound 3 µM
  viability, T/C: 2.65%
Second compound 0.0003 µM, first compound 0.00949 µM
  viability, T/C: 37.6%
Second compound 0.0003 µM, first compound 0.03 µM
  viability, T/C: 20.6%
Second compound 0.0003 µM, first compound 0.0949 µM
  viability, T/C: 15.6%
Second compound 0.0003 µM, first compound 0.3 µM
  viability, T/C: 5.26%
Second compound 0.0003 µM, first compound 0.949 µM
  viability, T/C: 2.59%
Second compound 0.0003 µM, first compound 3 µM
  viability, T/C: 1.68%
Second compound 0.000949 µM, first compound 0.00949 µM
  viability, T/C: 2.84%
Second compound 0.000949 µM, first compound 0.03 µM
  viability, T/C: 2.9%
Second compound 0.000949 µM, first compound 0.0949 µM
  viability, T/C: 2.06%
Second compound 0.000949 µM, first compound 0.3 µM
  viability, T/C: 0.99%
Second compound 0.000949 µM, first compound 0.949 µM
  viability, T/C: 0.03%
Second compound 0.000949 µM, first compound 3 µM
  viability, T/C: 0.1%
[1]
  viability, T/C: 0.12%
[2]
  viability, T/C: 0.12%
[3]
  viability, T/C: 0.12%
[4]
  viability, T/C: 0.1%
[5]
  viability, T/C: 0.12%
[6]
  viability, T/C: 0.2%

## COc1cc(C)[nH]c(=O)c1CN1CCc2c(Cl)cc(C(OC)C3COC3)c(Cl)c2C1=O (stereo not drawn)
Compound 0.0316 µM
  viability, T/C: 91% and 78.5% and 86.2%
Compound 0.1 µM
  outcome: inactive
  viability, T/C: 73.6% and 74.6%
Compound 0.316 µM
  outcome: inactive
  viability, T/C: 73.2% and 67.7%
Compound 1 µM
  viability, T/C: 65% and 42.6% and 61.8%
Compound 3.16 µM
  viability, T/C: 60.1% and 38.4% and 55.5%
Compound 10 µM
  viability, T/C: 54.7% and 35.1% and 51.2%
